Data from patent US6232305A, “Substituted amino bicyclic-β-lactam penam and cepham derivatives as cysteine protease inhibitors” (Naeja Pharmaceutical Inc., priority 1998, dated 2001).

Columns and labels:
Cathepsin L = Cathepsin L (Rattus norvegicus, UniProt P07154); assay: In vitro inhibition of cathepsin L; assay type: biochemical; conditions: r rat cathepsin L; substrate N-CBZ-Phe-Arg-AMC; pH 5.0; 10 min incubation at room temperature
Procedure: (§1) TEST EXAMPLE 2 In Vitro Assay Procedure for Cathepsin L […] After 10 min of incubation at room temperature, a 20 μl of 1 mM substrate (N-CBZ-Phe-Arg-AMC, dissolved in DMSO) was added to initiate reaction. Reading is followed up for 10 min at the fluoroscan reader (excitation at 380 nm emission at 460 nm).

Cathepsin B = Cathepsin B (Rattus norvegicus, UniProt P00787); assay: In vitro inhibition of cathepsin B; assay type: biochemical; conditions: r rat cathepsin B; substrate N-CBZ-Phe-Arg-AMC; pH 5.1; 10 min incubation at room temperature
Procedure: as §1, with “EXAMPLE 1” for “EXAMPLE 2”, “Cathepsin B The compounds of formula I were tested for inhibition of cathepsin B using the known method (A. J. Barret et al., Biochem. J. 1982, 201, 189-198).” for “Cathepsin L”, “of 5” for “of 1”

Cathepsin L, sequence (P07154 114-334): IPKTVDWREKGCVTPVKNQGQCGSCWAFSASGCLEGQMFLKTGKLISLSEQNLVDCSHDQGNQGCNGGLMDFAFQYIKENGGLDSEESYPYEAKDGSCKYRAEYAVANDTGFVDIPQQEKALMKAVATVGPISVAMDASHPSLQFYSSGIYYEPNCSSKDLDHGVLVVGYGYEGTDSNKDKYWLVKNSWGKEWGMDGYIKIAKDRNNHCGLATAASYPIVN
Cathepsin B, sequence (P00787 80-339): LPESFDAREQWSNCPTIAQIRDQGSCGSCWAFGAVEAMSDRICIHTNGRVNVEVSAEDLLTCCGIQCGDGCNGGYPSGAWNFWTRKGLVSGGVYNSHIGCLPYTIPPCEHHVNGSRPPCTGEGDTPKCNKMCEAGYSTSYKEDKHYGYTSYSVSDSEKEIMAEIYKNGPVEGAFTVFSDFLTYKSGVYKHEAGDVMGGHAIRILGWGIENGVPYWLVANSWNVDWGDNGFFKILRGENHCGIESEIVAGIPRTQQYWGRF

| IC50 (Cathepsin L) [nM] | IC50 (Cathepsin B) [µM] | SMILES |
| --- | --- | --- |
| 6680 | > 50 | O=C(N[C@@H](Cc1ccccc1)C(=O)N[C@@H]1C(=O)N2CCS[C@@H]12)OCc1ccccc1 [Example 1, (5S,6R)-6-(2S-2-benzyloxycarbonylamino-2-phenylmethyl-acetamido)-4-thia-1-azabicyclo [3,2,0] heptan-7-one] |
| 1.4 | 0.35 | O=C(N[C@@H](Cc1ccccc1)C(=O)N[C@@H]1C(=O)N2CCS(=O)(=O)[C@@H]12)OCc1ccccc1 [Example 2, (5S,6R)-6-(2S-2-benzyloxycarbonylamino-2-phenylmethyl-acetamido)-4,4-dioxo-4-thia-1-azabicyclo [3,2,0] heptan-7-one] |
| 9.6 | 6.01 | O=C(N[C@@H](Cc1ccccc1)C(=O)N[C@@H]1C(=O)N2CCS(=O)(=O)[C@H]12)OCc1ccccc1 [Example 3, (5R,6R)-6-(2S-2-benzyloxycarbonylamino-2-phenylmethyl-acetamido)-4,4-dioxo-4-thia-1-azabicyclo [3,2,0] heptan-7-one] |
| 11300 | > 50 | O=C(CCc1ccccc1)N[C@@H](Cc1cccc(F)c1)C(=O)N[C@@H]1C(=O)N2CCS[C@@H]12 [Example 10, (5S,6R)-6-{2S-2-(3-phenylpropionoyl)amino-2-(3-fluorophenyl)methyl-acetamido}4-4-thia-1-azabicyclo [3,2,0] heptan-7-one] |
| 11700 | > 50 | O=C(N[C@@H](Cc1cccnc1)C(=O)N[C@@H]1C(=O)N2CCS[C@@H]12)OCc1ccccc1 [Example 12, (5S,6R)-6-{2S-2-benzyloxycarbonylamino-2-(3-pyridyl)methyl-acetamido}-4-thia-1-azabicyclo [3,2,0] heptan-7-one] |
| > 50000 | > 50 | O=C(N[C@@H](Cc1ccccc1)C(=O)N[C@@H]1C(=O)N2CCCS[C@@H]12)OCc1ccccc1 [Example 14, (6S,7R)-7-(2S-2-benzyloxycarbonylamino-2-phenylmethyl-acetamido)-5-thia-1-azabicyclo [4,2,0] octan-8-one] |
| 2120 | > 50 | O=C(N[C@@H](Cc1ccccc1)C(=O)N[C@@H]1C(=O)N2CCCS(=O)(=O)[C@@H]12)OCc1ccccc1 [Example 15, (6S,7R)-7-(2S-2-benzyloxycarbonylamino-2-phenylmethyl-acetamido)-5,5-dioxo-5-thia-1-azabicyclo [4,2,0] octan-8-one] |
| – | > 50 | O=C(N[C@@H](Cc1ccccc1)C(=O)N[C@@H]1C(=O)N2CCCS(=O)(=O)[C@H]12)OCc1ccccc1 [Example 16, (6R,7R)-7-(2S-2-benzyloxycarbonylamino-2-phenylmethyl-acetamido)-5,5-dioxo-5-thia-1-azabicyclo [4,2,0] octan-8-one] |
| 2190 | > 50 | O=C(N[C@@H](Cc1ccccc1)C(=O)N[C@@H]1C(=O)N2CC(O)CS[C@@H]12)OCc1ccccc1 (stereo partly drawn) [Example 17, (6S,7R)-7-(2S-2-benzyloxycarbonylamino-2-phenylmethyl-acetamido)-3-hydroxy-5-thia-1-azabicyclo [4,2,0] octan-8-one] |
| 44 | > 50 | O=C(N[C@H](Cc1ccccc1)C(=O)N[C@@H]1C(=O)N2CCS(=O)(=O)[C@@H]12)OCc1ccccc1 [Example 20, (5S,6R)-6{2R-2-benzyloxycarbonylamino-2-phenylmethyl-acetamido}-4,4-dioxo4-thia-1-azabicyclo[3,2,0] heptan-7-one] |
| 68 | 16.4 | O=C(N[C@@H](Cc1ccccc1)C(=O)N[C@@H]1C(=O)N2CC[S+]([O-])[C@@H]12)OCc1ccccc1 (stereo partly drawn) [Example 21, (5S,6R)-6-{2S-2-benzyloxycarbonylamino-2-phenylmethyl-acetamido}-4-oxo-4-thia-1-azabicyclo [3,2,0] heptan-7-one] |

The next lines start with the molecule.

| SMILES | IC50 (Cathepsin L) [nM] | IC50 (Cathepsin B) [µM] |
| --- | --- | --- |
| O=C(CCc1ccccc1)N[C@@H](CC1CCCCC1)C(=O)N[C@@H]1C(=O)N2CCS[C@@H]12 [Example 4, (5S,6R)-6-{2S-2-(3-phenylpropionoyl)amino-2-cyclohexylmethyl-acetamido}-4-thia-1-azabicyclo [3,2,0] heptan-7-one] | > 50000 | > 50 |
| O=C(CCc1ccccc1)N[C@@H](CC1CCCCC1)C(=O)N[C@@H]1C(=O)N2CCS(=O)(=O)[C@@H]12 [Example 5, (5S,6R)-6-{2S-2-(3-phenylpropionoyl)amino-2-cyclohexylmethyl-acetamido}-4,4-dioxo-4-thia-1-azabicyclo [3,2,0] heptan-7-one] | 0.7 | 0.43 |
| O=C(CCc1ccccc1)N[C@@H](Cc1ccc2ccccc2c1)C(=O)N[C@@H]1C(=O)N2CCS[C@@H]12 [Example 6, (5S,6R)-6-{2S-2-(3-phenylpropionoyl)amino-2-(2-naphthyl)methyl-acetamido}-4-thia-1-azabicyclo [3,2,0] heptan-7-one] | 430 | 10.5 |
| O=C(CCc1ccccc1)N[C@@H](Cc1ccc2ccccc2c1)C(=O)N[C@@H]1C(=O)N2CCS(=O)(=O)[C@@H]12 [Example 7, (5S,6R)-6-{2S-2-(3-phenylpropionoyl)amino-2-(2-naphthyl)methyl-acetamido}-4,4-dioxo-4-thia-1-azabicyclo [3,2,0] heptan-7-one] | 3 | 0.39 |
| O=C(CCc1ccccc1)N[C@@H](Cc1cccs1)C(=O)N[C@@H]1C(=O)N2CCS[C@@H]12 [Example 8, (5S,6R)-6-{2S-2-(3-phenylpropionoyl)amino-2-(2-thienyl)methyl-acetamido}-4-thia-1-azabicyclo [3,2,0] heptan-7-one] | 11600 | > 50 |
| O=C(CCc1ccccc1)N[C@@H](Cc1cccs1)C(=O)N[C@@H]1C(=O)N2CCS(=O)(=O)[C@@H]12 [Example 9, (5S,6R)-6-{2S-2-(3-phenylpropionoyl)amino-2-(2-thienyl)methyl-acetamido}-4,4-dioxo-4-thia-1-azabicyclo [3,2,0] heptan-7-one] | 3 | 0.43 |
| O=C(CCc1ccccc1)N[C@@H](Cc1cccc(F)c1)C(=O)N[C@@H]1C(=O)N2CCS(=O)(=O)[C@@H]12 [Example 11, (5S,6R)-6-{2S-2-(3-phenylpropionoyl)amino-2-(3-fluorophenyl)methyl-acetamido}-4,4-dioxo-4-thia-1-azabicyclo [3,2,0] heptan-7-one] | 3.3 | 1 |
| O=C(N[C@@H](Cc1cccnc1)C(=O)N[C@@H]1C(=O)N2CCS(=O)(=O)[C@@H]12)OCc1ccccc1 [Example 13, (5S,6R)-6-{2S-2-benzyloxycarbonylamino-2-(3-pyridyl)methyl-acetamido}-4,4-dioxo-4-thia-1-azabicyclo [3,2,0] heptan-7-one] | 1.7 | 1.3 |
| COC(=O)[C@@H]1N2C(=O)[C@@H](NC(=O)[C@H](Cc3ccccc3)NC(=O)OCc3ccccc3)[C@H]2S(=O)(=O)C1(C)C [Example 18, Methyl (2S,5R,6R)-6-(2S-2-benzyloxycarbonylamino-2-phenylmethyl-acetamido)-3,3-dimethyl-7-oxo-4,4-dioxo4-thia-1-azabicyclo[3,2,0]heptane-2-carboxylate] | 1740 | 28.2 |
| CC1(C)[C@H](C(=O)O)N2C(=O)[C@@H](NC(=O)[C@H](Cc3ccccc3)NC(=O)CCc3ccccc3)[C@H]2S1(=O)=O [Example 19, (2S,5R,6R)-6-{2S-2-(3-phenylpropionoyl)amino-2-phenylmethyl-acetamido}-3,3-dimethyl-7-oxo-4,4-dioxo-4-thia-1-azabicyclo [3,2,0] heptane-2-carboxylic acid] | 6770 | > 50 |
